Test results published in patent US12077503B2, “Substituted cyclic amides and their use as herbicides” (FMC CORPORATION, priority 2015, dated 2024).

Assays:
Type in all cases: in vivo
[1] = system: redroot pigweed (Amaranthus retroflexus); test: Test G Pre-Emergence Protocol; settings: evaluated after 13 days
Procedure: (§1) Seeds of corn (Zea mays), giant foxtail (Setaria faberi), barnyardgrass (Echinochloa crus-galli), ivy-leaved morning glory (Ipomoea hederacea), redroot pigweed (Amaranthus retroflexus) and velvetleaf (Abutilon theophrasti) were sown in standard soil in pots. After cultivation for one day under controlled conditions in a glasshouse (at 24/16° C., day/night; 14 hours light; 65% humidity), the plants were sprayed with an aqueous spray solution derived from the formulation of the technical active ingredient in acetone/water (50:50) solution containing 0.5% Tween 20 (polyoxyethylene sorbitan monolaurate, CAS RN 9005-64-5) to give a final dose of 15.625, 62.5 or 250 g/ha of test compound.
(§2) The test plants were then grown on under controlled conditions in a glasshouse (at 24/16° C., day/night; 14 hours light; 65% humidity) and watered twice daily. After 13 days the test was evaluated (100=total damage to plant; 0=no damage to plant). A dash (-) means no test result.

[2] = system: ivy-leaved morning glory (Ipomoea hederacea); test: Test G Pre-Emergence Protocol; settings: evaluated after 13 days
Procedure: as §1, §2

[3] = system: barnyardgrass (Echinochloa crus-galli); test: Test G Pre-Emergence Protocol; settings: evaluated after 13 days
Procedure: as §1, §2

[4] = system: velvetleaf (Abutilon theophrasti); test: Test G Pre-Emergence Protocol; settings: evaluated after 13 days
Procedure: as §1, §2

[5] = system: corn (Zea mays); test: Test G Pre-Emergence Protocol; settings: evaluated after 13 days
Procedure: as §1, §2

[6] = system: giant foxtail (Setaria faberi); test: Test G Pre-Emergence Protocol; settings: evaluated after 13 days
Procedure: as §1, §2

[7] = system: redroot pigweed (Amaranthus retroflexus); test: Test G Post-Emergence Protocol
Procedure: as §1, with “8 days” for “one day”
as §2

[8] = system: barnyardgrass (Echinochloa crus-galli); test: Test G Post-Emergence Protocol
Procedure: as §1, with “8 days” for “one day”
as §2

[9] = system: velvetleaf (Abutilon theophrasti); test: Test G Post-Emergence Protocol
Procedure: as §1, with “8 days” for “one day”
as §2

[10] = system: corn (Zea mays); test: Test G Post-Emergence Protocol
Procedure: as §1, with “8 days” for “one day”
as §2

[11] = system: giant foxtail (Setaria faberi); test: Test G Post-Emergence Protocol
Procedure: as §1, with “8 days” for “one day”
as §2

[12] = 62.5 g ai/ha, 100=total damage to plant, 0=no damage to plant
[13] = 15.625 g ai/ha, evaluated after 13 days (100=total damage to plant; 0=no damage to plant)
[14] = 62.5 g ai/ha, evaluated after 13 days
[15] = 250 g ai/ha, evaluated after 13 days

Question: For `CN1C[C@H](c2cccc(C(F)(F)F)c2)[C@@H](C(=O)Nc2cccnc2F)C1=O` [Compound 1397], which “Pigweed, Redroot damage rating (100=total damage to plant; 0=no damage to plant)” value ([1]; 15.625 g ai/ha) is on record?
Answer: 0

Question: And the “Pigweed, Redroot damage rating (100=total damage to plant; 0=no damage to plant)” value ([1]; 250 g ai/ha)?
Answer: 80

Question: What about the pest or weed control at 62.5 g/ha ([1]; Amaranthus retroflexus, pre-emergence, 312 h, 62.5 g ai/ha, 100=total damage to plant, 0=no damage to plant, read-out: plant damage rating, Pigweed, Redroot) of the same molecule?
Answer: 20%

Question: And the “Morningglory, Ivy-leaved damage rating (100=total damage to plant; 0=no damage to plant)” value ([2]; 250 g ai/ha)?
Answer: 80

Question: What about the pest or weed control at 15.625 g/ha ([2]; Ipomoea, pre-emergence, 312 h, 15.625 g ai/ha, read-out: Morning-glory, Ivy-leaved damage rating (100=total damage to plant; 0=no damage to plant)) of the same molecule?
Answer: 60%

Question: What about the pest or weed control at 62.5 g/ha ([2]; Ipomoea, pre-emergence, 312 h, 62.5 g ai/ha, 100=total damage to plant, 0=no damage to plant, read-out: plant damage rating, Morningglory, Ivy-leaved) of the same molecule?
Answer: 70%

Question: What about the “Barnyardgrass damage rating (100=total damage to plant; 0=no damage to plant)” value ([3]; 250 g ai/ha) of the same molecule?
Answer: 90

Question: What about the pest or weed control at 15.625 g/ha ([3]; Echinochloa crus-galli, pre-emergence, 312 h, 15.625 g ai/ha, read-out: Barnyard grass damage rating (100=total damage to plant; 0=no damage to plant)) of the same molecule?
Answer: 90%

Question: And the pest or weed control at 62.5 g/ha ([3]; Echinochloa crus-galli, pre-emergence, 312 h, 62.5 g ai/ha, 100=total damage to plant, 0=no damage to plant, read-out: plant damage rating, Barnyardgrass)?
Answer: 90%

Question: And the “Velvetleaf damage rating (100=total damage to plant; 0=no damage to plant)” value ([4]; 15.625 g ai/ha)?
Answer: 0

Question: And the “Velvetleaf damage rating (100=total damage to plant; 0=no damage to plant)” value ([4]; 250 g ai/ha)?
Answer: 70

Question: And the pest or weed control at 62.5 g/ha ([4]; Abutilon theophrasti, pre-emergence, 312 h, 62.5 g ai/ha, 100=total damage to plant, 0=no damage to plant, read-out: plant damage rating, Velvetleaf)?
Answer: 10%

Question: What about the “Corn damage rating (100=total damage to plant; 0=no damage to plant)” value ([5]; 15.625 g ai/ha) of the same molecule?
Answer: 80

Question: And the “Corn damage rating (100=total damage to plant; 0=no damage to plant)” value ([5]; 250 g ai/ha)?
Answer: 90

Question: What about the plant injury at 62.5 g/ha ([5]; Zea mays, pre-emergence, 312 h, 62.5 g ai/ha, 100=total damage to plant, 0=no damage to plant, read-out: plant damage rating, Corn) of the same molecule?
Answer: 80%

Question: And the “Foxtail, Giant damage rating (100=total damage to plant; 0=no damage to plant)” value ([6]; 15.625 g ai/ha)?
Answer: 90

Question: And the “Foxtail, Giant damage rating (100=total damage to plant; 0=no damage to plant)” value ([6]; 250 g ai/ha)?
Answer: 90

Question: What about the pest or weed control at 62.5 g/ha ([6]; Setaria faberi, pre-emergence, 312 h, 62.5 g ai/ha, 100=total damage to plant, 0=no damage to plant, read-out: plant damage rating, Foxtail, Giant) of the same molecule?
Answer: 90%

Question: What about the pest or weed control at 15.625 g/ha ([7]; Amaranthus retroflexus, post-emergence, 312 h, 15.625 g ai/ha, evaluated after 13 days (100=total damage to plant; 0=no damage to plant), read-out: Pigweed, Redroot damage rating) of the same molecule?
Answer: 0%

Question: And the pest or weed control at 62.5 g/ha ([7]; Amaranthus retroflexus, post-emergence, 312 h, 62.5 g ai/ha, evaluated after 13 days, read-out: Pigweed, Redroot damage rating (100=total damage to plant; 0=no damage to plant))?
Answer: 30%

Question: And the pest or weed control at 250 g/ha ([7]; Amaranthus retroflexus, post-emergence, 312 h, 250 g ai/ha, evaluated after 13 days, read-out: damage to plant, Pigweed, Redroot (100=total damage to plant; 0=no damage to plant))?
Answer: 60%

Question: What about the pest or weed control at 15.625 g/ha ([8]; Echinochloa crus-galli, post-emergence, 312 h, 15.625 g ai/ha, evaluated after 13 days (100=total damage to plant; 0=no damage to plant), read-out: Barnyardgrass damage rating) of the same molecule?
Answer: 80%

Question: What about the pest or weed control at 62.5 g/ha ([8]; Echinochloa crus-galli, post-emergence, 312 h, 62.5 g ai/ha, evaluated after 13 days, read-out: Barnyardgrass damage rating (100=total damage to plant; 0=no damage to plant)) of the same molecule?
Answer: 80%

Question: And the pest or weed control at 250 g/ha ([8]; Echinochloa crus-galli, post-emergence, 312 h, 250 g ai/ha, evaluated after 13 days, read-out: damage to plant, Barnyardgrass (100=total damage to plant; 0=no damage to plant))?
Answer: 80%

Question: What about the pest or weed control at 15.625 g/ha ([9]; Abutilon theophrasti, post-emergence, 312 h, 15.625 g ai/ha, evaluated after 13 days (100=total damage to plant; 0=no damage to plant), read-out: Velvetleaf damage rating) of the same molecule?
Answer: 0%

Question: What about the pest or weed control at 62.5 g/ha ([9]; Abutilon theophrasti, post-emergence, 312 h, 62.5 g ai/ha, evaluated after 13 days, read-out: Velvetleaf damage rating (100=total damage to plant; 0=no damage to plant)) of the same molecule?
Answer: 10%

Question: And the pest or weed control at 250 g/ha ([9]; Abutilon theophrasti, post-emergence, 312 h, 250 g ai/ha, evaluated after 13 days, read-out: damage to plant, Velvetleaf (100=total damage to plant; 0=no damage to plant))?
Answer: 40%

Question: What about the plant injury at 15.625 g/ha ([10]; Zea mays, post-emergence, 312 h, 15.625 g ai/ha, evaluated after 13 days (100=total damage to plant; 0=no damage to plant), read-out: Corn damage rating) of the same molecule?
Answer: 80%

Question: And the plant injury at 62.5 g/ha ([10]; Zea mays, post-emergence, 312 h, 62.5 g ai/ha, evaluated after 13 days, read-out: Corn damage rating (100=total damage to plant; 0=no damage to plant))?
Answer: 80%

Question: What about the plant injury at 250 g/ha ([10]; Zea mays, post-emergence, 312 h, 250 g ai/ha, evaluated after 13 days, read-out: damage to plant, Corn (100=total damage to plant; 0=no damage to plant)) of the same molecule?
Answer: 80%

Question: And the pest or weed control at 15.625 g/ha ([11]; Setaria faberi, post-emergence, 312 h, 15.625 g ai/ha, evaluated after 13 days (100=total damage to plant; 0=no damage to plant), read-out: Foxtail, Giant damage rating)?
Answer: 80%

Question: What about the pest or weed control at 62.5 g/ha ([11]; Setaria faberi, post-emergence, 312 h, 62.5 g ai/ha, evaluated after 13 days, read-out: Foxtail, Giant damage rating (100=total damage to plant; 0=no damage to plant)) of the same molecule?
Answer: 80%

Question: And the pest or weed control at 250 g/ha ([11]; Setaria faberi, post-emergence, 312 h, 250 g ai/ha, evaluated after 13 days, read-out: damage to plant, Foxtail, Giant (100=total damage to plant; 0=no damage to plant))?
Answer: 80%

Question: Which results are given for `CN1C[C@H](c2ccc(C(F)(F)F)cc2)[C@@H](C(=O)Nc2cccc(F)n2)C1=O` [Compound 1400]?
Answer: Pigweed, Redroot damage rating (100=total damage to plant; 0=no damage to plant) ([1]; 15.625 g ai/ha): 20; plant damage rating, Pigweed, Redroot [1, 12]: 80; Pigweed, Redroot damage rating (100=total damage to plant; 0=no damage to plant) ([1]; 250 g ai/ha): 90; Morning-glory, Ivy-leaved damage rating (100=total damage to plant; 0=no damage to plant) ([2]; 15.625 g ai/ha): 0; plant damage rating, Morningglory, Ivy-leaved [2, 12]: 0; Barnyardgrass damage rating (100=total damage to plant; 0=no damage to plant) ([3]; 15.625 g ai/ha): 30; plant damage rating, Barnyardgrass [3, 12]: 80; Barnyardgrass damage rating (100=total damage to plant; 0=no damage to plant) ([3]; 250 g ai/ha): 80; Velvetleaf damage rating (100=total damage to plant; 0=no damage to plant) ([4]; 15.625 g ai/ha): 10; plant damage rating, Velvetleaf [4, 12]: 10; Velvetleaf damage rating (100=total damage to plant; 0=no damage to plant) ([4]; 250 g ai/ha): 60; Corn damage rating (100=total damage to plant; 0=no damage to plant) ([5]; 15.625 g ai/ha): 20; plant damage rating, Corn [5, 12]: 40; Corn damage rating (100=total damage to plant; 0=no damage to plant) ([5]; 250 g ai/ha): 60; Foxtail, Giant damage rating (100=total damage to plant; 0=no damage to plant) ([6]; 15.625 g ai/ha): 60; plant damage rating, Foxtail, Giant [6, 12]: 90; Foxtail, Giant damage rating (100=total damage to plant; 0=no damage to plant) ([6]; 250 g ai/ha): 90; Pigweed, Redroot damage rating [7, 13]: 20; Pigweed, Redroot damage rating (100=total damage to plant; 0=no damage to plant) [7, 14]: 50; damage to plant, Pigweed, Redroot (100=total damage to plant; 0=no damage to plant) [7, 15]: 60; Barnyardgrass damage rating [8, 13]: 50; Barnyardgrass damage rating (100=total damage to plant; 0=no damage to plant) [8, 14]: 70; damage to plant, Barnyardgrass (100=total damage to plant; 0=no damage to plant) [8, 15]: 70; Velvetleaf damage rating [9, 13]: 10; Velvetleaf damage rating (100=total damage to plant; 0=no damage to plant) [9, 14]: 10; damage to plant, Velvetleaf (100=total damage to plant; 0=no damage to plant) [9, 15]: 30; Corn damage rating [10, 13]: 10; Corn damage rating (100=total damage to plant; 0=no damage to plant) [10, 14]: 20; damage to plant, Corn (100=total damage to plant; 0=no damage to plant) [10, 15]: 60; Foxtail, Giant damage rating [11, 13]: 60; Foxtail, Giant damage rating (100=total damage to plant; 0=no damage to plant) [11, 14]: 70; damage to plant, Foxtail, Giant (100=total damage to plant; 0=no damage to plant) [11, 15]: 70
